2 molecules from ChEMBL document CHEMBL4428125, “8-Substituted 1,3-dimethyltetrahydropyrazino[2,1-f]purinediones: Water-soluble adenosine receptor antagonists and monoamine oxidase B inhibitors” (Bioorg Med Chem, 2016) can be followed below.

Molecules are shown by their SMILES. Converted amounts (≈) assume the structure as drawn. The source made the active and inactive calls. The rule behind the calls is not given here.

Series [1] has as its target T1, Adenosine receptor A2a (Homo sapiens, UniProt P29274). The series can be described thus: Displacement of [3H]MSX from human A2A receptor measured after 30 mins by liquid scintillation counting method. (Loss of bound radioactivity is the signal in a displacement assay; it reports binding, not function.)
The target of series [2] is T2, Adenosine receptor A2b (Homo sapiens) (UniProt P29275).
T2 sequence (whole entry): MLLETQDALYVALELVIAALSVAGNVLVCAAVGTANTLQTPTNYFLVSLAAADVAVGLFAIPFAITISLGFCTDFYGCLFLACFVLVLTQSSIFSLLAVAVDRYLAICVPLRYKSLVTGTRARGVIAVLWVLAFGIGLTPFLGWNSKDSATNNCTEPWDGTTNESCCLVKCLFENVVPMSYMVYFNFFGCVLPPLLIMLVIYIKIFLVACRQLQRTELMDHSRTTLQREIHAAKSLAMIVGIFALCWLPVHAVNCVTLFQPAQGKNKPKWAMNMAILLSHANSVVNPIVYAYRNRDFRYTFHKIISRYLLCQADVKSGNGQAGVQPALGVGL
The series can be described thus: Displacement of [3H]PSB-603 from human A2B receptor expressed in CHO cell membrane at 1 uM relative to control. In kind it is cell membranes.

For series [3], the target named is T3, Amine oxidase [flavin-containing] B (Homo sapiens, UniProt P27338).
T3 sequence (P27338 whole entry): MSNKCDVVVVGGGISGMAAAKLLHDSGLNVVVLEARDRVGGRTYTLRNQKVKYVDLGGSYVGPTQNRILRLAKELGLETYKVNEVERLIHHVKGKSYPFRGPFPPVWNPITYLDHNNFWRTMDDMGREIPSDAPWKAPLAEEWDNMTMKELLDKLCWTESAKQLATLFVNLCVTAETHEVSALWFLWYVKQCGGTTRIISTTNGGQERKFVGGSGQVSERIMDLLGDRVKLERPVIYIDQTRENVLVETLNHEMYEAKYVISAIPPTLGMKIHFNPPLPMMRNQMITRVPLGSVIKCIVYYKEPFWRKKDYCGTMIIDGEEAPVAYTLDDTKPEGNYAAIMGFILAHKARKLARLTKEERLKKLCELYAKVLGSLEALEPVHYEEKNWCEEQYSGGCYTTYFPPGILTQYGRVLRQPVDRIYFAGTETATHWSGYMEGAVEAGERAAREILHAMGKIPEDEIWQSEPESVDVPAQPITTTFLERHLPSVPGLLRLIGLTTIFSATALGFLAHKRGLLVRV
Description: Inhibition of recombinant human MAO-B expressed in baculovirus infected BTI insect cells at 10 uM preincubated for 30 mins followed by addition of p-tyramine as substrate measured over 45 mins by Amplex Red MAO assay relative to control. Particulars: 0.75 h.

Another series addresses T4, Adenosine receptor A2b (Homo sapiens, UniProt P29275).
T4 sequence (P29275 whole entry): T2 sequence (whole entry)
Description: Displacement of [3H]PSB-603 from human A2B receptor expressed in CHO cell membrane. In kind it is cell membranes.

Series [4] deals with T5, Amine oxidase [flavin-containing] A (Homo sapiens, UniProt P21397).
T5 sequence (P21397 whole entry): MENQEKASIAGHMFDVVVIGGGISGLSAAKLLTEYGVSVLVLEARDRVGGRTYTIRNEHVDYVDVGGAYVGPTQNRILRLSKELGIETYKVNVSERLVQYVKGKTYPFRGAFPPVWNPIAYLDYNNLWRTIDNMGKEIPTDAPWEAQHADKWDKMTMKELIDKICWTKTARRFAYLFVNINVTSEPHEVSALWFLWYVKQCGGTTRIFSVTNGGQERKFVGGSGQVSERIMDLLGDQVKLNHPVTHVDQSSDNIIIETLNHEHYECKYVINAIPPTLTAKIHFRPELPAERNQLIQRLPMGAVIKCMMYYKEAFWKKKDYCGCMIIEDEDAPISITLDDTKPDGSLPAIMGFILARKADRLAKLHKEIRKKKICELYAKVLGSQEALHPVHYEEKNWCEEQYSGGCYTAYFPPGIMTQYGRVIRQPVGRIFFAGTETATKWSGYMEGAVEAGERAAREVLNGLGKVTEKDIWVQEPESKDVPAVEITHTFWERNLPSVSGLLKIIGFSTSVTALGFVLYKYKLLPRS
The series can be described thus: Inhibition of recombinant human MAO-A expressed in baculovirus infected BTI insect cells preincubated for 30 mins followed by addition of p-tyramine as substrate measured over 45 mins by Amplex Red MAO assay.

Series [5] concerns the target T6, Adenosine receptor A1 (Homo sapiens) (UniProt P30542).
T6 sequence (whole entry): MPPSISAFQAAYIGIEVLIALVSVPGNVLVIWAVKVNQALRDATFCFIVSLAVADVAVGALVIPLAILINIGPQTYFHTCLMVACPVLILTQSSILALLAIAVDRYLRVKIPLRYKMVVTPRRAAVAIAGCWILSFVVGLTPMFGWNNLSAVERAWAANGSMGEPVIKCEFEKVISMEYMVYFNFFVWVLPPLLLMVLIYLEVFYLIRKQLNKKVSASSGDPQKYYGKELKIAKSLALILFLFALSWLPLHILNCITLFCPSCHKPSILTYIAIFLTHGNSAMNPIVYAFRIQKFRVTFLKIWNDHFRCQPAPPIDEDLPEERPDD
Description: Agonist activity at recombinant human A1 receptor expressed in CHO cells assessed as inhibition of forskolin-induced cAMP accumulation at 1 uM preincubated for 20 mins prior to forskolin-stimulation measure after 5 mins by liquid scintillation counting method. In kind it is functional, cell-based. For orientation: cAMP levels reflect the balance of adenylyl cyclase and phosphodiesterase activity.

A further series has as its target T7, Adenosine receptor A3 (Homo sapiens, UniProt P0DMS8).
T7 sequence (P0DMS8 whole entry): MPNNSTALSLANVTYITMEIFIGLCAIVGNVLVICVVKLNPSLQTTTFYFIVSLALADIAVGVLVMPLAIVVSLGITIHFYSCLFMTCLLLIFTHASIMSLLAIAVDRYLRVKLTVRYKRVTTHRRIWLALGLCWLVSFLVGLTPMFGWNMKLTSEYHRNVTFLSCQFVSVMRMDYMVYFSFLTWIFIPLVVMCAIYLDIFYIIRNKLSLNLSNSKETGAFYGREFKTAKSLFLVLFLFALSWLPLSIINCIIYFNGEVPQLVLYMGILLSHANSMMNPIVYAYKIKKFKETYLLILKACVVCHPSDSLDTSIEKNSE
Description: Displacement of [3H]PSB-11 from human A3 receptor expressed in CHO cell membrane by liquid scintillation counting method relative to control. Format: cell membranes.

Series [6] concerns the target T8, Adenosine receptor A3 (Homo sapiens) (UniProt P0DMS8).
T8 sequence (whole entry): T7 sequence (P0DMS8 whole entry)
Description: Displacement of [3H]PSB-11 from human A3 receptor expressed in CHO cell membrane at 10 uM by liquid scintillation counting method relative to control relative to control. Format: cell membranes.

For series [7], the target named is T9, Adenosine receptor A1 (Homo sapiens, UniProt P30542).
T9 sequence (P30542 whole entry): T6 sequence (whole entry)
The series can be described thus: Displacement of [3H]CCPA from human A1 receptor expressed in CHO cell membrane by liquid scintillation counting method. In kind it is cell membranes.

Series [8] has as its target T10, Adenosine receptor A1 (Rattus norvegicus, UniProt P25099).
T10 sequence (P25099 whole entry): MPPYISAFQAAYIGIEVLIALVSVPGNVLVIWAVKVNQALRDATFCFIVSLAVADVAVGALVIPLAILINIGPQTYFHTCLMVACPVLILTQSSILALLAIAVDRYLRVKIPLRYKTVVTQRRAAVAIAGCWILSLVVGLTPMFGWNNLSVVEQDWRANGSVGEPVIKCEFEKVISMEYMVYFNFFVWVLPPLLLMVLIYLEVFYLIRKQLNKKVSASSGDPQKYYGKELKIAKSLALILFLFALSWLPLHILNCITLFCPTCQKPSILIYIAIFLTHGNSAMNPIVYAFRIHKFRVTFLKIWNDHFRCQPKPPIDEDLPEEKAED
The series can be described thus: Displacement of [3H]CCPA from A1 receptor in rat brain cortex membranes by liquid scintillation counting method. In kind it is cell membranes.

The species entered for a further series is Homo sapiens. Description: Selectivity ratio, ratio of Ki for human A2A receptor to Ki for human A1 receptor.
Series [9] addresses T1, Adenosine receptor A2a. Description: Agonist activity at recombinant human A2A receptor expressed in CHO cells assessed as increase in forskolin-induced cAMP level at 10 uM preincubated for 20 mins prior to forskolin-stimulation measure after 5 mins by liquid scintillation counting method. In kind it is functional, cell-based.
For series [10], the target named is T3, Amine oxidase [flavin-containing] B. The series can be described thus: Inhibition of recombinant human MAO-B expressed in baculovirus infected BTI insect cells preincubated for 30 mins followed by addition of p-tyramine as substrate measured over 45 mins by Amplex Red MAO assay.
A short description of series [11]: Thermodynamic solubility of the compound at pH 7.4. In kind it is physicochemical. Particulars: buffer, read-out: Therm_solubility.
In series [12] the target is T5, Amine oxidase [flavin-containing] A. Description: Inhibition of recombinant human MAO-A expressed in baculovirus infected BTI insect cells at 10 uM preincubated for 30 mins followed by addition of p-tyramine as substrate measured over 45 mins by Amplex Red MAO assay relative to control. Particulars: 0.75 h.
The target of series [13] is T1, Adenosine receptor A2a. Description: Agonist activity at recombinant human A2A receptor expressed in CHO cells assessed as increase in forskolin-induced cAMP level at 1 uM preincubated for 20 mins prior to forskolin-stimulation measure after 5 mins by liquid scintillation counting method. Format: functional, cell-based.
In series [14] the target is T6, Adenosine receptor A1 (Homo sapiens). Description: Agonist activity at recombinant human A1 receptor expressed in CHO cells assessed as inhibition of forskolin-induced cAMP accumulation at 10 uM preincubated for 20 mins prior to forskolin-stimulation measure after 5 mins by liquid scintillation counting method. In kind it is functional, cell-based.
The target in series [15] is Adenosine receptor A2a (Rattus norvegicus, UniProt P30543). Description: Displacement of [3H]MSX from A2A receptor in rat brain striatum membranes measured after 30 mins by liquid scintillation counting method. Format: cell membranes.
Adenosine receptor A2a (Rattus norvegicus, UniProt P30543), sequence (P30543 whole entry): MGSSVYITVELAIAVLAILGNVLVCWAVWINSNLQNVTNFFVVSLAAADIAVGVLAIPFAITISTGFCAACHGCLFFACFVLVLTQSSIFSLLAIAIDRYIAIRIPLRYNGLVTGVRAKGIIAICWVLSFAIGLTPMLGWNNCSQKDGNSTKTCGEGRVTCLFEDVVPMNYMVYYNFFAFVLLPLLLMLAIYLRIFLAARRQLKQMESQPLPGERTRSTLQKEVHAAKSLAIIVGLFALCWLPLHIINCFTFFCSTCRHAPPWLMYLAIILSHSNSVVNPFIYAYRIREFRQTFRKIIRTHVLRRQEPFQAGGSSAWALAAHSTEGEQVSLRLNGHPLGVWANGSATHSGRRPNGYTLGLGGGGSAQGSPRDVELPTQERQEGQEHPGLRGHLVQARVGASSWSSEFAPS
Series [16] addresses T11, Adenosine receptor A1 (Rattus norvegicus) (UniProt P25099).
T11 sequence (whole entry): T10 sequence (P25099 whole entry)
The series can be described thus: Displacement of [3H]CCPA from A1 receptor in rat brain cortex membranes at 1.5 uM by liquid scintillation counting method. Format: cell membranes.

Series [17] addresses T8, Adenosine receptor A3 (Homo sapiens). Description: Displacement of [3H]PSB-11 from human A3 receptor expressed in CHO cell membrane at 1 uM by liquid scintillation counting method relative to control relative to control. In kind it is cell membranes.
Series [18] concerns the target Adenosine receptor A2a (Rattus norvegicus) (UniProt P30543). Description: Displacement of [3H]MSX from A2A receptor in rat brain striatum membranes at 1 uM measured after 30 mins by liquid scintillation counting method relative to control. Format: cell membranes.

T1 sequence (P29274 whole entry): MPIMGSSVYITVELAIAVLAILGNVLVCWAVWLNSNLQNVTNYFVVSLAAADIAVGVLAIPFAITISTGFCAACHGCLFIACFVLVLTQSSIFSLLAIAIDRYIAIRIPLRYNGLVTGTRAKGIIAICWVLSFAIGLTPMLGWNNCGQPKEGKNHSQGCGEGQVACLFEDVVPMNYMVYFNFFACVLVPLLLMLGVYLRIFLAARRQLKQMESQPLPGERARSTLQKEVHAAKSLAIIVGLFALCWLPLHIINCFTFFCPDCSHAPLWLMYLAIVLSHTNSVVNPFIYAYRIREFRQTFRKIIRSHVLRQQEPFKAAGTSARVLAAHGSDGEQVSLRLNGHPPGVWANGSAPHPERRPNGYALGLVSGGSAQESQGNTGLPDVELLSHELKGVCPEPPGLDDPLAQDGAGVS
Adenosine receptor A2a (Rattus norvegicus), sequence (P30543 whole entry): as the sequence (P30543 whole entry) above

Take `Cn1c(=O)c2c(nc3n2CCN(CCCc2ccc(Cl)cc2)C3)n(C)c1=O`: the Ki at Adenosine receptor A2a [1] was 0.23 µM; on Adenosine receptor A2b, more than 1 µM; at Adenosine receptor A3, more than 10 µM; on Adenosine receptor A1 [7], 0.0655 µM; at Adenosine receptor A1 [8], 0.352 µM; at Adenosine receptor A2a [15], 0.316 µM. Also, the results for the Activity in series [2] and in series [6] were 7% and 34%, respectively. Besides, the inhibition at 10 µM in series [3] stood at 44%; in series [12], 12%. Further, the IC50 in series [4] and in series [10] was more than 10 µM throughout. The outcome (in series [5]; at Adenosine receptor A2a [9]; on Adenosine receptor A2a [13]; in series [14]) was inactive. Further, the Ratio Ki in the series listed under Homo sapiens amounted to 4. Moreover, in series [11], the solubility thermodynamic stood at 4 µg/mL (≈ 10.3 µM).

Consider `Cn1c(=O)c2c(nc3n2CCN(c2ccc(Cl)cc2)C3)n(C)c1=O`, for which the Activity was found to be 1% in series [16], 9% in [2], 2% in [17] and 34% in series [18]. Further, the inhibition at 10 µM in [3] amounted to 15%. In addition, the inhibition constant Ki on Adenosine receptor A2b is more than 1 µM; at Adenosine receptor A3, more than 1 µM; on Adenosine receptor A1 [8], more than 1.5 µM; on Adenosine receptor A2a [15], more than 10 µM. The IC50 in series [10] is more than 10 µM.

A word on the Ki: it is the equilibrium dissociation constant of an inhibitor or competing ligand from its target. A high value points to weaker binding. The term inhibition denotes how much of the control response was suppressed. One may read the IC50 as the concentration that inhibits the measured activity by half.
